For 19 compounds, Ki and EC50 results are on record in patent US11318137B2, “Quinazoline compounds as modulators of Ras signaling” (VANDERBILT UNIVERSITY, priority 2017, dated 2022).

In one experiment the target is T1, Son of Sevenless (SOS) (Homo sapiens, UniProt Q07889).
T1 sequence (Q07889 564-1049 limits assumed): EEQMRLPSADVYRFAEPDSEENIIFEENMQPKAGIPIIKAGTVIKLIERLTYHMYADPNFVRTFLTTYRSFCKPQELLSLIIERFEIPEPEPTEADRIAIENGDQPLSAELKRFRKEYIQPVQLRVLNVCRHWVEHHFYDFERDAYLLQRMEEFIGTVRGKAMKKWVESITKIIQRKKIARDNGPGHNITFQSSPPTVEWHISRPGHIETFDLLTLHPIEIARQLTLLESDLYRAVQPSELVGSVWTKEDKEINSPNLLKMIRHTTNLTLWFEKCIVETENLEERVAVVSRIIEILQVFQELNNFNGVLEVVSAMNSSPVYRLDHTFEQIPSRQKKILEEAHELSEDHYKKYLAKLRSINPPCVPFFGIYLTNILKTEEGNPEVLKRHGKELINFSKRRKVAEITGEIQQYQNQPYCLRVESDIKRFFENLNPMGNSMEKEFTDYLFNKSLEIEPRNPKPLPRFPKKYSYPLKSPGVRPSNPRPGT
The experiment in a line: Binding to SOS, fluorescence polarization anisotropy (FPA) displacement of FITC-conjugated probe. The note with it: binding affinity calculated from IC50 of FITC-probe displacement, read-out: Binding affinities (binding affinity to SOS). On the procedure: Compounds of the present invention were tested for their ability to the Ras guanine exchange factor (GEF) Son of Sevenless (SOS). Binding to SOS was measured using a Fluorescence polarization anisotropy (FPA) assay that assesses the ability of a test compound to displace a fluorescent FITC-conjugated compound. Briefly, the labeled probe compound is incubated with SOS in buffer. Changes in anisotropy indicative of displacement of the labeled probe for a test compound are assessed over a dose range of test compound. Data was analyzed by plotting fluorescence anisotropy values as a function of compound concentration. IC50 values were determined using a four-parameter dose-response (variable slope) and binding affinities were calculated from this IC50 value. This assay is performed in a method analogous to the assay disclosed in: Burns, M. C.; Sun, Q.; Daniels, R. N.; Camper, D. V.; Kennedy, J. P.; Phan, J.; Olejniczak, E. O.; Lee, T.; Waterson, A. G.; Rossanese, O. W.; Fesik, S. W. “Approach for targeting Ras with small molecules that activate SOS-mediated nucleotide exchange” Proc. Natl. Acad. Sci. 2014; 11(9): 3401-3406. PMCID: PMC3948241.

For experiment [1], the target named is T2, SOS-mediated nucleotide exchange on Ras (Homo sapiens, UniProt Q07889).
T2 sequence (Q07889 1-1333): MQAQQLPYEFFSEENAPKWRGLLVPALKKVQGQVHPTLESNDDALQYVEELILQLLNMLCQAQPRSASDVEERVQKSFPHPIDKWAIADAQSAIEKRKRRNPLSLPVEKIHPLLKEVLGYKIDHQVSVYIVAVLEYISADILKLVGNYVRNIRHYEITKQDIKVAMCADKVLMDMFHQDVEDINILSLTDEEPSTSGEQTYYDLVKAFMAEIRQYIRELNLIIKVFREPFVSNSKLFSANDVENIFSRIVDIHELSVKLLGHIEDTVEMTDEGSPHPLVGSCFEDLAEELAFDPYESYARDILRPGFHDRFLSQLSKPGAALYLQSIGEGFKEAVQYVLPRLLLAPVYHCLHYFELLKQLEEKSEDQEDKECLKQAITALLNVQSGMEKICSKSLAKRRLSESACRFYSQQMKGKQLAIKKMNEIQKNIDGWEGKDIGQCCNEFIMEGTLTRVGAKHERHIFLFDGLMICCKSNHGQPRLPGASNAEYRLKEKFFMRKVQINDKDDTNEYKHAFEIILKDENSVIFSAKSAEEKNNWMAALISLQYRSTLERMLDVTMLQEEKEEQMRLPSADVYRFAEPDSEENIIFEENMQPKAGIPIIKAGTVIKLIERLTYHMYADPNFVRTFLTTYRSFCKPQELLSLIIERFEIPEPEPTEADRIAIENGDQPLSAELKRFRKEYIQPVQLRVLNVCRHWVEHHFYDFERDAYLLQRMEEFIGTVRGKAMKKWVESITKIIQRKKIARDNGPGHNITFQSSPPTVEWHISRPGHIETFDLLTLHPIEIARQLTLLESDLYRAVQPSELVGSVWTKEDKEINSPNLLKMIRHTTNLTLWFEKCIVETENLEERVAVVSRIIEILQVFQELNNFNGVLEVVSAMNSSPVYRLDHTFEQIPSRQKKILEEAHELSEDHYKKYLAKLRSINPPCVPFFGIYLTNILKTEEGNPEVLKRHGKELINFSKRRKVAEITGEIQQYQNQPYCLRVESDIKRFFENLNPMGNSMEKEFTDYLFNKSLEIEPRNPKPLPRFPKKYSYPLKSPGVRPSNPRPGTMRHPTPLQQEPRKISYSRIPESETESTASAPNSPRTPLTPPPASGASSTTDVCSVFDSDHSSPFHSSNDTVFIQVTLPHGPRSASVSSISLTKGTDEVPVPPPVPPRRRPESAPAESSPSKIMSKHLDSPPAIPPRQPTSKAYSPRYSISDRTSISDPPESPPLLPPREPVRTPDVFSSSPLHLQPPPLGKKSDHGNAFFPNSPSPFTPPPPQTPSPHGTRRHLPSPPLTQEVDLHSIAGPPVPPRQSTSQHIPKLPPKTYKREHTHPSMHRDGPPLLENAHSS
Nature of the experiment: SOS-mediated nucleotide exchange on Ras (BODIPY-GDP fluorescence). Type of experiment: biochemical. The note with it: Ras loaded with BODIPY-GDP, GTP and SOS added; EC50 from derived exchange rates. In short, it runs like this:
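Compound, then GTP and SOS, were added to buffered Ras preloaded with BODIPY-GDP, and the fluorescence change from labeled GDP being exchanged for GTP was followed over time. Rates came from single-exponential fits, and EC50 from a four-parameter fit of mean rate against compound concentration.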

Consider `C[C@@H](Nc1nc(Nc2ccc(F)c(Cl)c2)nc2c(CN)cccc12)C1CC1` [Example 56, (R)-8-(aminomethyl)-N^2-(3-chloro-4-fluorophenyl)-N^4-(1-cyclopropylethyl)quinazoline-2,4-diamine], for which the Ki on Son of Sevenless (SOS) was above 5 µM. The compound further showed an EC50 in experiment [1] of 1 to 5 µM.
As for `C[C@@H](Nc1nc(NCC2CCCCC2)nc2ccccc12)C1CC1` [Example 4, (R)—N^2-(cyclohexylmethyl)-N^4-(1-cyclopropylethyl)quinazoline-2,4-diamine], the Ki at Son of Sevenless (SOS) was above 5 µM. Moreover, the EC50 in experiment [1] lay in the range of 1 to 5 µM.
As to `C[C@@H](Nc1nc(NCC2CCCC2)nc2c(C3=CCNCC3)cccc12)C1CC1` [Example 105, (R)—N^2-(cyclopentylmethyl)-N^4-(1-cyclopropylethyl)-8-(1,2,3,6-tetrahydropyridin-4-yl)quinazoline-2,4-diamine], the Ki on Son of Sevenless (SOS) was 1 to 5 µM. Further, the EC50 in experiment [1] lay within 1 to 5 µM.
Take `CC[C@@H](Nc1nc(Nc2cc(C)cc(F)c2)nc2c(C3=CCNCC3)cccc12)C1CC1` [Example 126, (R)—N^4-(1-cyclopropylpropyl)-N^2-(3-fluoro-5-methylphenyl)-8-(1,2,3,6-tetrahydropyridin-4-yl)quinazoline-2,4-diamine]: at Son of Sevenless (SOS), the Ki was below 1 µM. In experiment [1], this compound returned an EC50 of 1 to 5 µM.
The corresponding values for `C[C@@H](Nc1nc(Nc2ccc(F)c(Cl)c2)nc2ccccc12)c1cccs1` [Example 37, (R)—N^2-(3-chloro-4-fluorophenyl)-N^4-(1-(thiophen-2-yl)ethyl)quinazoline-2,4-diamine] are above 5 µM and 1 to 5 µM.
For the compound `C[C@@H](Nc1nc(NCC2CCCCC2)nc2c(C3=CCNCC3)cccc12)c1cccs1` [Example 90, (R)—N^2-(cyclohexylmethyl)-8-(1,2,3,6-tetrahydropyridin-4-yl)-N^4-(1-(thiophen-2-yl)ethyl)quinazoline-2,4-diamine], at Son of Sevenless (SOS), the Ki is 1 to 5 µM. The compound also gave an EC50 in experiment [1] of 1 to 5 µM.
With `C[C@@H](Nc1nc(Nc2ccc(F)c(Cl)c2)nc2c(C3=CCOCC3)cccc12)C1CC1` [Example 122, (R)—N^2-(3-chloro-4-fluorophenyl)-N^4-(1-cyclopropylethyl)-8-(3,6-dihydro-2H-pyran-4-yl)quinazoline-2,4-diamine], at Son of Sevenless (SOS), the Ki was above 5 µM. The EC50 in experiment [1] was above 30 µM.
Regarding `C[C@@H](Nc1nc(Nc2ccc(F)c(Cl)c2)nc2c(NC3CNC3)cccc12)C1CC1` [Example 112, (R)—N^8-(azetidin-3-yl)-N^2-(3-chloro-4-fluorophenyl)-N-(1-cyclopropylethyl)quinazoline-2,4,8-triamine], the Ki on Son of Sevenless (SOS) is above 5 µM. In addition, the EC50 in experiment [1] is 1 to 5 µM.
In the case of `C[C@@H](Nc1nc(Nc2ccc(F)c(Cl)c2)nc2ccccc12)C(C)(C)C` [Example 40, (R)—N^2-(3-chloro-4-fluorophenyl)-N^4-(3,3-dimethylbutan-2-yl)quinazoline-2,4-diamine], at Son of Sevenless (SOS), the Ki was above 5 µM. The compound also gave an EC50 in experiment [1] of 1 to 5 µM.
For `C=CC[C@@H](Nc1nc(Nc2cc(F)cc(F)c2)nc2c(C3=CCNCC3)cccc12)C1CC1` [Example 116, (R)—N^4-(1-cyclopropylbut-3-en-1-yl)-N^2-(3,5-difluorophenyl)-8-(1,2,3,6-tetrahydropyridin-4-yl)quinazoline-2,4-diamine], in that order: below 1 µM and 1 to 5 µM.
With `Clc1cc(Cl)cc(Nc2nc(NCc3cccs3)c3ccccc3n2)c1` [Example 9, N^2-(3,5-dichlorophenyl)-N^4-(thiophen-2-ylmethyl)quinazoline-2,4-diamine], the Ki at Son of Sevenless (SOS) is above 5 µM. This compound came in with an EC50 in experiment [1] below 1 µM.
On to `C[C@@H](Nc1nc(NCC2CCCCC2)nc2c(C3=CCNCC3)cccc12)C(C)(C)C` [Example 81, (R)—N^2-(cyclohexylmethyl)-N^4-(3,3-dimethylbutan-2-yl)-8-(1,2,3,6-tetrahydropyridin-4-yl)quinazoline-2,4-diamine], for which the Ki at Son of Sevenless (SOS) is above 5 µM. Moreover, in experiment [1], the EC50 was 1 to 5 µM.
The corresponding values for `C[C@@H](Nc1nc(Nc2ccc(F)c(Cl)c2)nc2c(N3CCOCC3)cccc12)C1CC1` [Example 124, (R)—N^2-(3-chloro-4-fluorophenyl)-N^4-(1-cyclopropylethyl)-8-morpholinoquinazoline-2,4-diamine] are above 5 µM and 5 to 30 µM.
For `Cc1cc(F)cc(Nc2nc(NC(C3CC3)C3CC3)c3cccc(C4=CCNCC4)c3n2)c1` [Example 108, N^4-(dicyclopropylmethyl)-N^2-(3-fluoro-5-methylphenyl)-8-(1,2,3,6-tetrahydropyridin-4-yl)quinazoline-2,4-diamine], in that order: 1 to 5 µM and 1 to 5 µM.
The corresponding values for `C[C@@H](Nc1nc(Nc2ccc(F)c(Cl)c2)nc2c(NCCN(C)C)cccc12)C1CC1` [Example 67, (R)—N^2-(3-chloro-4-fluorophenyl)-N^4-(1-cyclopropylethyl)-N8-(2-(dimethylamino)ethyl)quinazoline-2,4,8-triamine] are above 5 µM and 5 to 30 µM.
Consider `C[C@@H](Nc1nc(Nc2ccc(F)c(Cl)c2)nc2c(C#N)cccc12)C1CC1` [Example 55, (R)-2-((3-chloro-4-fluorophenyl)amino)-4-((1-cycloprprpylethyl)amino)quinazoline-8-carbonitrile], for which the Ki on Son of Sevenless (SOS) is above 5 µM. In experiment [1], this compound returned an EC50 above 30 µM.
For `C[C@@H](Nc1nc(NCC2CCCC2)nc2ccccc12)C1CC1` [Example 3, (R)—N^2-(cyclopentylmethyl)-N^4-(1-cyclopropylethyl)quinazoline-2,4-diamine], the Ki on Son of Sevenless (SOS) was above 5 µM. Moreover, in experiment [1], the EC50 was 1 to 5 µM.
For `Cc1cc(F)cc(Nc2nc(N[C@H](C)c3cccs3)c3cccc(CCN)c3n2)c1` [Example 92, (R)-8-(2-aminoethyl)-N^2-(3-fluoro-5-methylphenyl)-N^4-(1-(thiophen-2-yl)ethyl)quinazoline-2,4-diamine], in that order: above 5 µM and 5 to 30 µM.
The corresponding values for `C[C@@H](Nc1nc(Nc2ccc(F)c(Cl)c2)nc2c(NCCCN(C)C)cccc12)C1CC1` [Example 53, (R)—N^2-(3-chloro-4-fluorophenyl)-N^4-(1-cyclopropylethyl)-N^8-(3-(dimethylamino)propyl)quinazoline-2,4,8-triamine] are above 5 µM and 5 to 30 µM.

The EC50 is the midpoint of the concentration-response curve. A higher EC50 goes with a need for much substance.
